Data on five molecules can be found in ChEMBL document CHEMBL1201862, “PubChem BioAssay data set” (2004).

Calls of active or inactive are those of the source.

Targets include Cytochrome P450 2D6 (Homo sapiens, UniProt P10635); Cytochrome P450 3A4 (Homo sapiens, UniProt P08684); Cytochrome P450 2C9 (Homo sapiens, UniProt P11712).
A further series deals with Cytochrome P450 2C19 (Homo sapiens, UniProt P33261). Briefly: Cytochrome panel assay with activity outcomes. Panel member name: p450-cyp2c19 Compounds with AC50 equal or less than 10 uM are considered active. Type of series: functional.
The next series addresses T1, Cytochrome P450 1A2 (Homo sapiens, UniProt P05177).
T1 sequence (P05177 whole entry): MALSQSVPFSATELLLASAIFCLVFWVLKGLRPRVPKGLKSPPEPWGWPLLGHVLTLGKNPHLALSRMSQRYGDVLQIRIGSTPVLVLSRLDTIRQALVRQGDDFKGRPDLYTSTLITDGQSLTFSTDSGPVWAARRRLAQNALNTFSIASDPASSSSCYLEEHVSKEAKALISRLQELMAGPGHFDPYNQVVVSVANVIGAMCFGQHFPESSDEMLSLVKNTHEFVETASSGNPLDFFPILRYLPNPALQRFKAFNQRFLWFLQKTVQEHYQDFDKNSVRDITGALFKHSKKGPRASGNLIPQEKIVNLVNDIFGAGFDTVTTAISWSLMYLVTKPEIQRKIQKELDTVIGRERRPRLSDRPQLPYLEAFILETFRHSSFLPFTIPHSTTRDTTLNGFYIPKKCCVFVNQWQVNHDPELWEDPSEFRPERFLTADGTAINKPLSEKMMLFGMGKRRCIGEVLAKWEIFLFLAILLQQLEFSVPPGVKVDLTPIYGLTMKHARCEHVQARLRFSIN

Series [1] addresses Sphingosine 1-phosphate receptor 1 (Homo sapiens, UniProt P21453). Briefly: Fluorescence-based counterscreen assay for S1P4 agonists: Cell-based dose response high throughput screening assay to identify agonists of the Sphingosine 1-Phosphate Receptor 1 (S1P1). [Related pubchem assays (depositor defined):AID1509, AID1523, AID1801, AID463107, AID463118, AID463119, AID463122, AID463123, AID463129, AID463225, AID504400, AID504460]. The class given is functional. A general note: The purpose of a counterscreen is to sort out artefacts and off-target activity.

For series [2], the target named is T2, Sphingosine 1-phosphate receptor 4 (Homo sapiens, UniProt O95977).
T2 sequence (O95977 whole entry): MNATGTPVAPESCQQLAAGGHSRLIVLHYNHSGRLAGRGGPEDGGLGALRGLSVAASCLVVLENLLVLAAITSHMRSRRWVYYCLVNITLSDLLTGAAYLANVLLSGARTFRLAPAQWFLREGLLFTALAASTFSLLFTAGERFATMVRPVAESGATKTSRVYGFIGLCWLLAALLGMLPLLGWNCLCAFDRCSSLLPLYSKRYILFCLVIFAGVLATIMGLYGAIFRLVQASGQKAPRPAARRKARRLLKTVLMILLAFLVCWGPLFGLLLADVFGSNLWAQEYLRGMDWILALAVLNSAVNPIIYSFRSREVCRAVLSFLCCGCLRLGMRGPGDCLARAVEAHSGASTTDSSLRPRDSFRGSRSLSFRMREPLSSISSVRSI
Briefly: Fluorescence dose response cell-based high throughput screening assay for agonists of the Sphingosine 1-Phosphate Receptor 4 (S1P4). [Related pubchem assays: 1509 (Primary screen.), 1523 (Confirmation screen in triplicates.)]. Type of series: functional.

For series [3], the target named is Voltage-dependent T-type calcium channel subunit alpha-1H (Homo sapiens, UniProt O95180). The class given is functional.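 Note: channel activity triggered by adding a high calcium stimulation buffer.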
Sequence of Voltage-dependent T-type calcium channel subunit alpha-1H (O95180 whole entry): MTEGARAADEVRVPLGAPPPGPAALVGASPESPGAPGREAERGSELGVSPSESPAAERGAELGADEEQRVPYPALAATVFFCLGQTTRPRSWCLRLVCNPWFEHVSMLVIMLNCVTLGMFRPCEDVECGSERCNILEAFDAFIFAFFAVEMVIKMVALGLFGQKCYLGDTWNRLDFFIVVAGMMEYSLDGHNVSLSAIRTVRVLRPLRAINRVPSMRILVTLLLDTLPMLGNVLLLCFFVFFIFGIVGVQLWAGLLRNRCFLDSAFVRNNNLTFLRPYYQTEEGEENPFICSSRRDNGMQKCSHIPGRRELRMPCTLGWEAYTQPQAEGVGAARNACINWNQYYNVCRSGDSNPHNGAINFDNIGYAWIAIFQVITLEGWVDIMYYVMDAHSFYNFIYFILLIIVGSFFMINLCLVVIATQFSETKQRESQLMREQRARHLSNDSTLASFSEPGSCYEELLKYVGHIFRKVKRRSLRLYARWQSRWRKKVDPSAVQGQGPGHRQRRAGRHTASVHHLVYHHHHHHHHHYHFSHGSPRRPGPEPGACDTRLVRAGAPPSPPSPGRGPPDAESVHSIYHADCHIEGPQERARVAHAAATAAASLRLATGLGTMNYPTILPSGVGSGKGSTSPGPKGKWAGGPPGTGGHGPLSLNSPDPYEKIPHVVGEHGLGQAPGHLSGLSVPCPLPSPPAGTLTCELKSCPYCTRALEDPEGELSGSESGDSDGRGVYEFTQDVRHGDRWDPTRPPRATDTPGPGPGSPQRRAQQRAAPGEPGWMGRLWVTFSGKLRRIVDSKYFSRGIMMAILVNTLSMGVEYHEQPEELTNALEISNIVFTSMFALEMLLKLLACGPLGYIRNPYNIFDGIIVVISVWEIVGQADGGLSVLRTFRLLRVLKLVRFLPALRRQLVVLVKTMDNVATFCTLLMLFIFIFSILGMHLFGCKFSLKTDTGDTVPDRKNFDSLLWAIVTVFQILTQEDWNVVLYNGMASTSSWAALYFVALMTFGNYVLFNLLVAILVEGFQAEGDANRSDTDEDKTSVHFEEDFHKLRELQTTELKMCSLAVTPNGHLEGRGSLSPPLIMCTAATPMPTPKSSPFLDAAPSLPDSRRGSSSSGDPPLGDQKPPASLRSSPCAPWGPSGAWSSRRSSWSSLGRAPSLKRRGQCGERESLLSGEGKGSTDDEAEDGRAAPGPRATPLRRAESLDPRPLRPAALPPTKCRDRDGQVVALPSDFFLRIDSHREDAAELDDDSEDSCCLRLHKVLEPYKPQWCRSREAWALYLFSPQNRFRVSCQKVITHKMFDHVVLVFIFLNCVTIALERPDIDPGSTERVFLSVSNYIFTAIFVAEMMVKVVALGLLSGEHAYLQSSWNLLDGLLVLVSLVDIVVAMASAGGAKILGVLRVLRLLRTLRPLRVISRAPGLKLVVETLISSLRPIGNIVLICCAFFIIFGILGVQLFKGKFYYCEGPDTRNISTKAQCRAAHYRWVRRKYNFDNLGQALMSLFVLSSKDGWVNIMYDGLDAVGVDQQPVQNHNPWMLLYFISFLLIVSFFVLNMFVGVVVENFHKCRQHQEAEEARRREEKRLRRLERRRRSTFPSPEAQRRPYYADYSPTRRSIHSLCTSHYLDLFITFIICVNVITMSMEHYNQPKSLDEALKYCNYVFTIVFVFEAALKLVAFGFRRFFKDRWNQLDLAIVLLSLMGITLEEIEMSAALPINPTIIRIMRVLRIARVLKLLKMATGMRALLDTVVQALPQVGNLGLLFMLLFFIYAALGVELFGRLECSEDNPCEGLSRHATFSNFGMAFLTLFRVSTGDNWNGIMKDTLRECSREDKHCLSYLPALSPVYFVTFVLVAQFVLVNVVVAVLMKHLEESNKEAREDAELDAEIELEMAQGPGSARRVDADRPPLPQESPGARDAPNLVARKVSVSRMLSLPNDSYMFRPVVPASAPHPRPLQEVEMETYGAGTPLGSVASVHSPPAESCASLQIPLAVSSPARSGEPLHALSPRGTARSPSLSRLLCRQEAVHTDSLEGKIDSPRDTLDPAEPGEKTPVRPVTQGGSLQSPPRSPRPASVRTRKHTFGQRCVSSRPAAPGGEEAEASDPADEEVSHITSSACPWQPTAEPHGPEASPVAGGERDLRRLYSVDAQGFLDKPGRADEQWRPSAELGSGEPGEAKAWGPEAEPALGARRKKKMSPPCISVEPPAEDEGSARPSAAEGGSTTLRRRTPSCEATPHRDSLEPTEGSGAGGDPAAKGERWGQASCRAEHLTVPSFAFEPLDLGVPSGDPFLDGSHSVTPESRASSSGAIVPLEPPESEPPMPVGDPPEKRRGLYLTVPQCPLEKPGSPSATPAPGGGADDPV
In series [4] the target is Eukaryotic translation initiation factor 4E (Mus musculus, UniProt P63073). Briefly: eIF4E–eIF4G protein interaction inhibitors, dose response, biochemical, TR-FRET (AID 855).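 Note: potency for disrupting eIF4E binding to eIF4GI seen as loss of FRET.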 The class given is functional.
Sequence of Eukaryotic translation initiation factor 4E (P63073 whole entry): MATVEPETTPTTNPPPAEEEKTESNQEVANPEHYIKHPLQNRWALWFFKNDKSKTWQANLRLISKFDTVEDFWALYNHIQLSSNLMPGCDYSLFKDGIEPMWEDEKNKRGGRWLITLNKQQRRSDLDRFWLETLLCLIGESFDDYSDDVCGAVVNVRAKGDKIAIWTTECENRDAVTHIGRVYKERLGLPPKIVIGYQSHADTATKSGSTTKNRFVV
For series [5], the target named is T3, Delta-type opioid receptor (Homo sapiens, UniProt P41143). Briefly: HTS Image-Based Screen for Antagonists of the DOR Receptor. [Related pubchem assays (depositor defined):AID1777, AID1785, AID1786, AID2133]. Type of series: functional.
T3 sequence (P41143 whole entry): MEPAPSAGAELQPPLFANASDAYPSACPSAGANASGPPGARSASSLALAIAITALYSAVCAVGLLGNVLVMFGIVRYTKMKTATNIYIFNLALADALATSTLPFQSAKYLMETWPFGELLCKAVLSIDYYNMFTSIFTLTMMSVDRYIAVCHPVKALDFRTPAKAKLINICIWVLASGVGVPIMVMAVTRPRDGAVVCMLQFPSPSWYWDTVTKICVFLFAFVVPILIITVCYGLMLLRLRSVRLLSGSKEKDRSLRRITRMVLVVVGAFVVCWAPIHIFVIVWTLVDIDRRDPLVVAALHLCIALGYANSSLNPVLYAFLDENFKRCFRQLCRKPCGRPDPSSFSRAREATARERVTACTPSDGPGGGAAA
For the next series, the target named is Mu-type opioid receptor (Homo sapiens, UniProt P35372). Briefly: HTS Image-Based Screen for Agonists of the MOR Receptor. [Related pubchem assays (depositor defined):AID1777, AID1785, AID1786, AID2133]. Type of series: functional.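 Note: imaging of beta-arrestin GFP recruitment into spots after receptor activation.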
Series [6] concerns the target T3, Delta-type opioid receptor. Briefly: HTS Image-Based Screen for Agonists of the DOR Receptor. [Related pubchem assays (depositor defined):AID1777, AID1786, AID2133]. The class given is functional.
For series [7], the target named is T4, Kappa-type opioid receptor (Homo sapiens, UniProt P41145). The class given is functional.
T4 sequence (P41145 whole entry): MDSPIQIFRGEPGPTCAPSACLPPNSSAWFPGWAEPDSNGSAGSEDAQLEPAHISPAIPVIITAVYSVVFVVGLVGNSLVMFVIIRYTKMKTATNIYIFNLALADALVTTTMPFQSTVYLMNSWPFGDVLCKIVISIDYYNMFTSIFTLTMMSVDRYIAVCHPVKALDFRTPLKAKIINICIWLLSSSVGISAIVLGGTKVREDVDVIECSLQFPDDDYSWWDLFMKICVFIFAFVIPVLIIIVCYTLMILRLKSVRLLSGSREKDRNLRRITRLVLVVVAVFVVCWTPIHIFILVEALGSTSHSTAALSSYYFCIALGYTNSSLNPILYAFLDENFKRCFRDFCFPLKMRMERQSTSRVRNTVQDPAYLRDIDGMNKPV
The target in the next series is Beta-galactosidase (Escherichia coli, UniProt Q8VNN2). Type of series: functional.
In series [8] the target is T4, Kappa-type opioid receptor. The class given is functional. This is another data set of the same source.
The next series deals with T5, Bcl-2-related protein A1 (Mus musculus, UniProt Q07440).
T5 sequence (Q07440 whole entry): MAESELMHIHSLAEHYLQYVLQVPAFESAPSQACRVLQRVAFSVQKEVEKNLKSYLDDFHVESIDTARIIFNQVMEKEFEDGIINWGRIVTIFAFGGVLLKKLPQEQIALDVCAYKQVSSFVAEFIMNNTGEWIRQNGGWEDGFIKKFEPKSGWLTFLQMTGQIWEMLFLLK
The class given is functional.

The target of series [9] is T6, Ubiquitin-conjugating enzyme E2 N (Homo sapiens, UniProt P61088).
T6 sequence (P61088 whole entry): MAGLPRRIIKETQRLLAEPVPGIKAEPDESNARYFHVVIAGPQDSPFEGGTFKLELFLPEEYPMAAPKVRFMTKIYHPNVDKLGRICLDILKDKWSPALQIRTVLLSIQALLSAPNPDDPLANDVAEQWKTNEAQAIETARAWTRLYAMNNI
Type of series: functional.

Series [10] addresses T6, Ubiquitin-conjugating enzyme E2 N. The class given is functional. The source holds these as a separate data set.
Series [11] can be described thus: Intein inhibitors as potential Tuberculosis drugs, a cytotoxicity screen. [Related pubchem assays (depositor defined):AID2221, AID2223, AID434968, AID435010, AID449749, AID449750, AID489010]. The class given is functional.
For series [12], the target named is T7, Replicative DNA helicase DnaB (Mycobacterium tuberculosis, UniProt P9WMR3).
T7 sequence (P9WMR3 whole entry): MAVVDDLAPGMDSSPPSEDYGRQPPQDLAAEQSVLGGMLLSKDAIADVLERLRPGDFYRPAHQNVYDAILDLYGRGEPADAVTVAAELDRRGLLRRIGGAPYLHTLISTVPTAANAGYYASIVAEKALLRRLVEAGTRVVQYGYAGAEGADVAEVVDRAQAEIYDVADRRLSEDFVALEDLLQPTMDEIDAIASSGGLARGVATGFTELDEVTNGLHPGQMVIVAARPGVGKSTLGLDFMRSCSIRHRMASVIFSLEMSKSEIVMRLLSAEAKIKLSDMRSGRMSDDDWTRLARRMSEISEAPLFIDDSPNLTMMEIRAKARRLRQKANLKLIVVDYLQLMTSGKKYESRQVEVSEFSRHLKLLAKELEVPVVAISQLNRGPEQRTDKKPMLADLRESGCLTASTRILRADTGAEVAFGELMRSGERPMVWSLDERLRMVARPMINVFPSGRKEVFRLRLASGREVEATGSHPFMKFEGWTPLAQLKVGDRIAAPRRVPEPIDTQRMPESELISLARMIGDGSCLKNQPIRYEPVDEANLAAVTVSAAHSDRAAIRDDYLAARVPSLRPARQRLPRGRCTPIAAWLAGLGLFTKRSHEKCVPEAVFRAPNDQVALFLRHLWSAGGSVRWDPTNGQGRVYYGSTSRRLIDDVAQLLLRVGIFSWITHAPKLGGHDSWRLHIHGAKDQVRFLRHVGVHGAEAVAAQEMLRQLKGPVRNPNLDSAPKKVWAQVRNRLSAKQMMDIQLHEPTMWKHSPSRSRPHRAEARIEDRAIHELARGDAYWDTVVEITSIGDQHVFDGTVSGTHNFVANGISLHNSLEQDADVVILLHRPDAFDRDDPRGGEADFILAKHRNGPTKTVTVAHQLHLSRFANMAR
Put plainly: DnaB intein splicing inhibitors, dose response, biochemical, cell-free fluorescence (AID 449749). Type of series: functional.

A further series deals with Vero. Briefly: Vero cell cytotoxicity, cytotoxicity control for flavivirus capping enzyme inhibitors (AID 588742). The note with it: Chlorocebus sabaeus. The class given is functional.
A further series concerns the target T8, Protein RecA (Mycobacterium tuberculosis, UniProt P9WHJ3).
T8 sequence (P9WHJ3 whole entry): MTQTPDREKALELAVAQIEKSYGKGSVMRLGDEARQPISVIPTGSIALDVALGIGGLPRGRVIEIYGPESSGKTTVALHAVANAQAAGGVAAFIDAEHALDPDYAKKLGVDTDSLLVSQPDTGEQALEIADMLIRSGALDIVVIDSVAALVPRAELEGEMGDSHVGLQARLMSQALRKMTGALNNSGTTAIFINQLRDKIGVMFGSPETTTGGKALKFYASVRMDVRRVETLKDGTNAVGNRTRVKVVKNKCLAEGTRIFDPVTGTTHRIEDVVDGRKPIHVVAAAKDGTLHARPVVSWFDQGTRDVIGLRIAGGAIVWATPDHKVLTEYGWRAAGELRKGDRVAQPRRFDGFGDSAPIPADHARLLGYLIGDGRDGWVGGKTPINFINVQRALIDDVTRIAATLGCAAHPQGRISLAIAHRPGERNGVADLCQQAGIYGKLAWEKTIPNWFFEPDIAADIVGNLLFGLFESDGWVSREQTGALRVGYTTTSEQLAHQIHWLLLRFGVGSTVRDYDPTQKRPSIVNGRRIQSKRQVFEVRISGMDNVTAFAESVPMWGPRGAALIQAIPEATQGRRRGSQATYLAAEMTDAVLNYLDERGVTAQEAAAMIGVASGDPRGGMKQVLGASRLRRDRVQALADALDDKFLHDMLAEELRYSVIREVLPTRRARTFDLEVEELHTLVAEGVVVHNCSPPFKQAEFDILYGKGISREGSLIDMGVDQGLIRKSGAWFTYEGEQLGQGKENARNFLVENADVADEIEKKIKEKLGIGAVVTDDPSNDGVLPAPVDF
Put plainly: Fluorescence Cell-Free Homogeneous Dose Retest to Identify Inhibitors of RecA-Intein Splicing Activity. [Related pubchem assays (depositor defined):AID2097, AID2223, AID489010, AID492950]. Type of series: functional.

For another series, the target named is Genome polyprotein (dengue virus type 2, UniProt P29990). Put plainly: Dengue-2 NS5 methyltransferase inhibitors, primary screen, biochemical, confirmation dose response (AID 588689). Type of series: functional.
Series [13] is described as follows: Shn3 3'UTR reporter inhibitors, dose response, cell-based, Clone20 osteoblasts, firefly luciferase, cherry-picked (AID 624132).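 Note: firefly luciferase luminescence from reporter carrying the Shn3 3'UTR in osteoblasts.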 Type of series: functional.
Series [14] can be described thus: control 3'UTR Renilla luciferase suppression, dose response, counter-screen for Shn3 inhibitor project, cell-based, Clone20-Shn3RL, cherry-picked (AID 624133). Type of series: functional.
In series [15] the target is Hepatocyte nuclear factor 4-alpha (Homo sapiens, UniProt P41235). Type of series: functional, cell-based.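 Note: biochemical luminescence-based dose-response counterscreen measuring inhibition of HNF4 dimerization, run alongside a screen for blockers of ABHD5–perilipin-5 interaction; split luciferase complementation of HNF4 fusion proteins in cell lysate measuring dimerization.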
Sequence of Hepatocyte nuclear factor 4-alpha (P41235 whole entry, the tested form may be a part): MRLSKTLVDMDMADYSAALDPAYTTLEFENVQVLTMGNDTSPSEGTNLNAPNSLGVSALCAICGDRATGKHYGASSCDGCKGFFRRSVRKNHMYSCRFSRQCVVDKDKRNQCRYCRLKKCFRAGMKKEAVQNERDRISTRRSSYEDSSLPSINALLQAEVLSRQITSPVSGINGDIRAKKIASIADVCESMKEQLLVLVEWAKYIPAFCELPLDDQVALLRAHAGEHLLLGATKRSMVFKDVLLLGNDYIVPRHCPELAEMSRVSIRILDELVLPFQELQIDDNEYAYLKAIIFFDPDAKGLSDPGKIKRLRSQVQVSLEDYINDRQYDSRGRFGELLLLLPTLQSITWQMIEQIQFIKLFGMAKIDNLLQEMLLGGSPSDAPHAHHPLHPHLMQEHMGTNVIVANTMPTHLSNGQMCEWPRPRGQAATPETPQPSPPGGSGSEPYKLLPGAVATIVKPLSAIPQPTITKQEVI
For another series, the target named is Tumor necrosis factor (Homo sapiens, UniProt P01375). Briefly: TNFa-triggered NF-kB activation inhibitors, SAR follow-up, cell-based, revised (AID 2337). Type of series: functional.
Sequence of Tumor necrosis factor (P01375 whole entry, the tested form may be a part): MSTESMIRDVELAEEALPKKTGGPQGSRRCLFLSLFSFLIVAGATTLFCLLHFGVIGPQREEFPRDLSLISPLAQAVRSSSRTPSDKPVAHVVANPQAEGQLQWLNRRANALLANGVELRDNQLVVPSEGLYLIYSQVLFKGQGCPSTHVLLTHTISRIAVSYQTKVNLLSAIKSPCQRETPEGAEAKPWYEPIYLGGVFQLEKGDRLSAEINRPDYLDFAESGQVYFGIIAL
Series [16] has as its target Nucleotide-binding oligomerization domain-containing protein 1 (Homo sapiens, UniProt Q9Y239). Put plainly: NOD1 signaling inhibitors, SAR follow-up, revised (AID 2333). The class given is functional.
The target in series [17] is Nucleotide-binding oligomerization domain-containing protein 2 (Homo sapiens, UniProt Q9HC29). Put plainly: PubChem AID 2334. Type of series: functional.
Sequence of Nucleotide-binding oligomerization domain-containing protein 2 (Q9HC29 whole entry, the tested form may be a part): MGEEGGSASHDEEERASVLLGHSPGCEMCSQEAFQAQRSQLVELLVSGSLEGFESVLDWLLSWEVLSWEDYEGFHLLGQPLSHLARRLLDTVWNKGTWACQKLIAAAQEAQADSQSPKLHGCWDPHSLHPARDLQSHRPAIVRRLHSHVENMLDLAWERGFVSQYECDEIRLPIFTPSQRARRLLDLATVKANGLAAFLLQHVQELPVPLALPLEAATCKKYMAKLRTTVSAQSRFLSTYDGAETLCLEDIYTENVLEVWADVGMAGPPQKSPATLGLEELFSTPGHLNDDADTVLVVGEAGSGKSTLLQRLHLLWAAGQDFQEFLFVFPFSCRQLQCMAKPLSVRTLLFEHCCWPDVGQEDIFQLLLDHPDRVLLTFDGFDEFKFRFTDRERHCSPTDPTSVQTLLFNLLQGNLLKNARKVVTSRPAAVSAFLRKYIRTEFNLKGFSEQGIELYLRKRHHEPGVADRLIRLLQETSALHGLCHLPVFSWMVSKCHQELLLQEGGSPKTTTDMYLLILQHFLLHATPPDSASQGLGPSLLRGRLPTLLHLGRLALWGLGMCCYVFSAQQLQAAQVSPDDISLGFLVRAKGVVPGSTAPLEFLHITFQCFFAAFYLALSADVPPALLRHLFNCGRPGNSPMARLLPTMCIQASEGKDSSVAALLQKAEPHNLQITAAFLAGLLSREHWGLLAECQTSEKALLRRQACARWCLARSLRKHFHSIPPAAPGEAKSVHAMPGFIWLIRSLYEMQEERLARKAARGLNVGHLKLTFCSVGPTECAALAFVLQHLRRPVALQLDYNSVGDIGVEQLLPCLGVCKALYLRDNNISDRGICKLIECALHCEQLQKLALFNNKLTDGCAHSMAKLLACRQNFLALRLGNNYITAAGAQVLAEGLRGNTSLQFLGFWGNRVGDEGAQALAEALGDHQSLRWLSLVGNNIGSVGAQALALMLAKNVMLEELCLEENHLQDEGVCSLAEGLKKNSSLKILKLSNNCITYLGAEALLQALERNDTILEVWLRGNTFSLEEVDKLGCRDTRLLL
Another series deals with HEK293. Briefly: cells. Particulars: Homo sapiens.

For orientation: AC50 means the concentration at which the activity in the assay is half-maximal. On to `O=C(O[C@H]1C[N@+]2(Br)CC[C@@H]1CC2)C(O)(c1ccccc1)c1ccccc1`, for which the half-maximal activity concentration (AC50) result on Cytochrome P450 2C19, at Cytochrome P450 2D6, at Cytochrome P450 1A2, at Cytochrome P450 3A4 and at Cytochrome P450 2C9 was “inactive” each time.
What is called EC50 is the concentration giving half of the maximal effect. In general, IC50 refers to the concentration that gives 50% inhibition. As for `CCOc1ccccc1OCCCCCc1c(C)n[nH]c1C`, the figures for the EC50 in [1], in [2] and in series [3] were > 49.8 µM (inactive), > 49.8 µM (not active) and 8.55 µM (active), respectively. Besides, the IC50 in series [4] is > 64 µM (inactive).
On to `CCc1nc2sc3c(Cl)ncnc3c2c2c1CCCC2`, for which the IC50 in series [5] is > 32 µM (inactive); in series [7], 5.42 µM (active); in series [8] it was greater than 32 µM. Moreover, the EC50 at Mu-type opioid receptor was > 32 µM (inactive); in series [6] it was > 32 µM (inactive); on Beta-galactosidase, > 31.5 µM (inactive).
One may read the CC50 as the concentration at which the toxic effect on the cells reaches its halfway point. Consider `Cc1ccc(CS(=O)(=O)c2ncc(Cl)c(C(=O)Nc3nnc(C(C)C)s3)n2)cc1`, for which the IC50 was > 20 µM (inactive) at Bcl-2-related protein A1; 10.7 µM (active) in [9]; > 20 µM (inactive) in series [10]; > 100 µM (active) at Genome polyprotein; 3.27 µM (active) in series [15]. Further, the 50% cytotoxic concentration (CC50) is 28.3 µM (active) in series [11] and 29.1 µM (active) in the series with Vero. Also, the AC50 in [12] is 2.95 µM (active); in series [13], 1.52 µM (active); in series [14], 4.07 µM (active). Further, the EC50 at Protein RecA was 0.717 µM (active).
Regarding `O=C(Nc1nc2ccccc2n1Cc1ccccc1Cl)c1cccs1`, the IC50 (on Tumor necrosis factor; in series [16]; in series [17]; with HEK293) was > 20 µM (inactive) throughout.
